Structures can show the parent of a compound that is named as a salt. Where two headings read alike, the source gives them in different places.
Assays:
Type in all cases: physicochemical
[1] = Appearance (color, clumping, flowability) of stored 25HC3S salts; details: 2-8° C.
Method: (§1) Approximately 25 mg of each crystalline 25HC3S salt was added to 20 mL glass vials and each powder weight was recorded. Four vials were prepared for each salt and stored at 2-8° C. or 80° C. according to Table B2. The samples were scheduled initially to pull for testing at 3 weeks and 6 weeks' time points.
(§2) For those […] salts, the remaining vials stored at 2-8° C. for 3 weeks were allocated for storage at 60° C. for 1 week. Additional stability data was generated according to Table B3.
For appearance, each unopened vial was visually examined for color, clumping, and flowability.

[2] = Solid-state chemical stability of 25HC3S salts at 2-8° C., 60° C. and 80° C. (HPLC assay and degradation products); details: for % Impurities, Total / % Impurities, 25-HC: ND = Not Detected; for Overall physical and chemical stability (in words): 60° C.; for % Impurities, 25-HC: 25-Hydroxy-Cholesterol
Method: as §1, §2
Based on the molecular weights, and expected UV response factors of each salt used in this study, the expected analytical sample concentrations were within the range of the 25HC3S sodium reference standards (0.75 mg/mL to 1.25 mg/mL as 25HC3S sodium salt). However, due to the lower-than-expected purity of the 25HC3S benzathine salt, an additional standard was prepared at 0.125 mg/mL as 25HC3S sodium salt.
Samples were prepared by pipetting 20 mL of 100% methanol into each vial and mixing well, with sonication and vortexing to fully dissolve the samples for HPLC analysis.
Samples were prepared by pipetting 20 mL of 100% methanol into each vial followed by two rounds of sonication for 30 minutes, with 30 seconds of vortexing before and after each round. Sample aliquots were then centrifuged at 10,000 RPM for 10 minutes and the supernatant collected for HPLC analysis.
Samples were prepared by pipetting 20 mL of 100% methanol into each vial, followed by 5 seconds of vortexing. The undissolved powder in methanol was quantitatively transferred into 200 mL volumetric flasks. The sample vials were rinsed 3 times with methanol, with each rinsate transferred to the 200 mL volumetric flasks. The volumetric flasks were filled to about 90% volume and sonicated for 10 minutes to fully dissolve the powder. The flasks were filled to volume with methanol, mixed well and aliquots collected for HPLC analysis.
HPLC analysis was performed.

[3] = Solubility of 25HC3S salts after one day at room temperature (HPLC, as free acid); details: one day
Method: These fluids were prepared per the instruction listed by Biorelevant (Biorelevant.com). Each buffer concentrate was diluted with water and mixed well. FaSSIF, FeSSIF, FaSSGF powder was added to each buffer and mixed to completely dissolve the powder. Buffers were stored at room temperature and used within 48 hours of preparation.
25HC3S salts were weighed in 8 mL or 4 mL glass vials with Teflon coated screw caps. Aliquots of each solvent were added to each sample and vortexed for about one minute until excess solid remained. Samples were placed on shaker at room temperature with 210 motion per minute shaking.
After one day, samples were pulled and checked if excess solid was present. About 1.5 mL aliquot of each sample was centrifuged at 12000 rpm for 12 to 15 minutes. […] Aliquots of the top clear solution of each centrifuged sample in MeOH, EtOH, IPA and ACN were diluted with diluent (water:MeOH 95:5) and assayed by HPLC. Samples of the salts in aqueous media were assayed by HPLC without dilution.
All solubility sample solutions of 25HC3S salts were determined using HPLC. A linear standard curve was constructed using standards with concentration between 11 μg/mL to 1.5 mg/mL as free acid forcing the curve to origin. Solubilities are reported as mg/mL free acid 25HC3S. Detection limit (LOD) of the HPLC method was calculated as 0.0007 mg/mL.

[4] = Hausner ratio and compressibility index of 25HC3S salts
Method: Although there are some variations in the method of determining the compressibility index and Hausner ratio, the basic procedure is to measure the unsettled apparent volume, VO, and the final tapped volume, Vf, of the powder after tapping the material until no further volume changes occur. The compressibility index and the Hausner ratio are calculated as follows: […]
Both the Hausner ratio and the compressibility index are empirically established. The Hausner ratio and compressibility index are not absolute properties of a material; its value can vary depending on the methodology used to determine them. In this case, since the 14 salts of 25HC3S were measured the same way, the relative values should be accurate.
Table C3, from USP <1174> Powder Flow, describes the flow character of the powder based on the compressibility index and Hausner ratio values.
Powder was carefully poured into a 5 mL glass graduated cylinder (to contain) until it was close to or at 5.0 mL. This initial volume was recorded as Vo. The graduated cylinder was tapped on a hard surface for 200 times and the volume was recorded. The cylinder was tapped 100 times more, and the final volume Vf was recorded. Typically, the volume after 200 taps was identical to after 300 taps, or within 0.1 mL.

[5] = Overall rank order of powder flowability (angle of repose and Hausner ratio); details: for Powder flowability, overall (in words): angle of repose and compressibility index/Hausner ratio combined
Description: Table C5 was generated by adding the relative rank order of the 25HC3S salts for angle of repose and Hausner ratio results, and creating an Over All Rank Order of the salts powder flowability. The salts with the lower overall rank order score had better powder flowability.

Appearance ([1]; 3 wk): White, free flowing powder with clumping
Appearance ([1]; 5 wk): White, free flowing powder with clumping
% Impurities, Total ([2]; 2-8° C., 3 wk): 3.2%
% Impurities, Total ([2]; 2-8° C., 5 wk): 2.4%
Overall physical and chemical stability (in words) ([2]; 2-8° C., 80° C.): physically and chemically stable
Overall physical and chemical stability (in words) ([2]; 2-8° C., 80° C., listed as lysine): relatively stable
% Impurities, 25-HC ([2]; 2-8° C., 3 wk): 0.3%
% Impurities, 25-HC ([2]; 2-8° C., 5 wk): 0.3%
% Impurities, 25-HC ([2]; 80° C., 3 wk): 0.3%
% Impurities, 25-HC ([2]; 80° C., 5 wk): 0.3%
Stressed stability at 80° C. (in words) ([2]; 80° C.): good, stressed stability
% Impurities, Total ([2]; 80° C., 3 wk): 3.7%
% Impurities, Total ([2]; 80° C., 5 wk): 3.1%
remaining at 504 h ([2]; solid state, 2-8° C., 3 wk, read-out: Assay): 91.5%
remaining at 840 h ([2]; solid state, 2-8° C., 5 wk, read-out: Assay): 94.2%
remaining at 504 h ([2]; solid state, 80° C., 3 wk, vs 2-8° C., read-out: % Recovery): 101%
remaining at 504 h ([2]; solid state, 80° C., 3 wk, read-out: Assay): 92.8%
Stability after 5 weeks at 80° C. (in words) ([2]; solid state, 80° C., 5 weeks): stable
remaining at 840 h ([2]; solid state, 80° C., 5 wk, read-out: % Recovery, 2-8° C./5 wk vs 80° C./5 wk): 103%
remaining at 840 h ([2]; solid state, 80° C., 5 wk, read-out: Assay): 96.9%
solubility at 24 h ([3]; 0.9% nacl, room temperature, as free acid, ND = not detected, detection limit 0.7 μg/mL, read-out: Solubility in 0.9% NaCl): 8 µg/mL
solubility at 24 h ([3]; 5% dextrose, room temperature, as free acid, ND = not detected, detection limit 0.7 μg/mL, read-out: Solubility in 5% Dextrose): 38 µg/mL
Solubility in FaSSGF (in words) ([3]; FaSSGF, room temperature): low solubility
Solubility in FaSSGF ([3]; Fasted State Simulated Gastric Fluid, pH 1.6, room temperature, as free acid, LOD 0.0007 mg/mL): no solubilized drug was detected
solubility at 24 h ([3]; acetonitrile, organic solvent or mixture, acetonitrile, room temperature, as free acid, read-out: Solubility in ACN): 800 µg/mL
solubility at 24 h ([3]; ethanol, organic solvent or mixture, ethanol, room temperature, as free acid, ≥ = did not reach saturation, read-out: Solubility in EtOH): 1700 µg/mL
solubility at 24 h ([3]; fassif, room temperature, as free acid, read-out: Solubility in FaSSIF): 72 µg/mL
solubility at 24 h ([3]; fessif, room temperature, as free acid, read-out: Solubility in FeSSIF): 676 µg/mL
solubility at 24 h ([3]; isopropyl alcohol, organic solvent or mixture, isopropyl alcohol, room temperature, as free acid, read-out: Solubility in IPA): 900 µg/mL
solubility at 24 h ([3]; methanol, organic solvent or mixture, methanol, room temperature, as free acid, ≥ = did not reach saturation, read-out: Solubility in MeOH): 5900 µg/mL
solubility at 24 h ([3]; water, room temperature, as free acid, ND = not detected, detection limit 0.7 μg/mL, read-out: Solubility in H2O): 40 µg/mL
Hausner Ratio [4]: 1.32
Compressibility Index ([4]; Table C3 heads this index in %): 24
Powder flowability, overall (in words) ([5]; listed as crystalline 25HC3S lysine): relatively good flowability
Powder flowability, overall (in words) ([5]; listed as lysine): top three
Angle of Repose Rank Order ([5]; rank, lower is better flow): 2
Hausner Ratio Rank Order ([5]; rank, lower is better flow): 2
Overall Rank Order (Total Score) ([5]; sum of both ranks, lower is better flow): 4
Structure (SMILES): C[C@H](CCCC(C)(C)O)[C@H]1CC[C@H]2[C@@H]3CC=C4C[C@@H](OS(=O)(=O)O)CC[C@]4(C)[C@H]3CC[C@]12C [Salt #14]
Physical and chemical solid-state stability (comments) ([2]; 80° C., 5 weeks): Stable after 5 weeks at 80 °C physically and chemically.

Source: patent US20260317367A1, “SALTS INCLUDING CRYSTALLINE SALTS OF 25-HYDROXY-CHOLEST-5-EN-3-SULFATE AND METHODS FOR PREPARING SAME” (Durect Corporation, priority 2022, published 2026)
